Results as given in the supplement of paper PMC10307832.

Key:
Assay in all cases: relative viability (nuclei count vs DMSO), 5 days (fraction); higher = more cells survive
NCI-H2087 = system: NCI-H2087
In short: (§1)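 Lung cancer cell lines in 1536-well plates got either a single drug or a fixed anchor-drug dose together with five library-drug doses (not always all listed) in √10 steps, by pin tool, on the day after seeding. Nuclei were counted after 5 days, and relative viability is the treated-to-vehicle ratio of nuclei counts. Values are medians of duplicate plates.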

SK-MES-1 = system: SK-MES-1
In short: as §1

PC-14 = system: PC-14
In short: as §1

NCI-H2085 = system: NCI-H2085
In short: as §1

LXF-289 = system: LXF-289
In short: as §1

NCI-H1563 = system: NCI-H1563
In short: as §1

NCI-H520 = system: NCI-H520
In short: as §1

NCI-H1993 = system: NCI-H1993
In short: as §1

NCI-H1355 = system: NCI-H1355
In short: as §1

NCI-H1666 = system: NCI-H1666
In short: as §1

NCI-H1755 = system: NCI-H1755
In short: as §1

NCI-H2170 = system: NCI-H2170
In short: as §1

NCI-H1792 = system: NCI-H1792
In short: as §1

LU99A = system: LU99A
In short: as §1

COR-L23 = system: COR-L23
In short: as §1

BEN = system: BEN
In short: as §1

NCI-H460 = system: NCI-H460
In short: as §1

CAL-12T = system: CAL-12T
In short: as §1

NCI-H1651 = system: NCI-H1651
In short: as §1

HCC-44 = system: HCC-44
In short: as §1

NCI-H1437 = system: NCI-H1437
In short: as §1

NCI-H1650 = system: NCI-H1650
In short: as §1

## Cc1csc(=NC2CCCCC2)n1/N=C/c1ccc(O)c(O)c1O [MIM1] + COc1cccc2cc(-c3nc([C@H]4CC[C@H](C(=O)O)CC4)n4ncnc(N)c34)[nH]c12 [OSI-027] (partner 0.5 µM)
NCI-H2087; first compound 0.2 µM
  relative viability: 0.688
NCI-H2087; first compound 0.6325 µM
  relative viability: 0.511
NCI-H2087; first compound 2 µM
  relative viability: 0.696
NCI-H2087; first compound 6.325 µM
  relative viability: 0.547
NCI-H2087; first compound 20 µM
  relative viability: 0.34
SK-MES-1; first compound 0.2 µM
  relative viability: 0.656
SK-MES-1; first compound 0.6325 µM
  relative viability: 0.643
SK-MES-1; first compound 2 µM
  relative viability: 0.591
SK-MES-1; first compound 6.325 µM
  relative viability: 0.439
SK-MES-1; first compound 20 µM
  relative viability: 0.15
PC-14; first compound 0.2 µM
  relative viability: 0.785
PC-14; first compound 0.6325 µM
  relative viability: 0.846
PC-14; first compound 2 µM
  relative viability: 0.499
PC-14; first compound 6.325 µM
  relative viability: 0.656
PC-14; first compound 20 µM
  relative viability: 0.0965
NCI-H2085; first compound 0.2 µM
  relative viability: 0.676
NCI-H2085; first compound 0.6325 µM
  relative viability: 0.808
NCI-H2085; first compound 2 µM
  relative viability: 0.712
NCI-H2085; first compound 6.325 µM
  relative viability: 0.565
NCI-H2085; first compound 20 µM
  relative viability: 0.446
LXF-289; first compound 0.2 µM
  relative viability: 0.782
LXF-289; first compound 0.6325 µM
  relative viability: 0.586
LXF-289; first compound 2 µM
  relative viability: 0.806
LXF-289; first compound 6.325 µM
  relative viability: 0.686
LXF-289; first compound 20 µM
  relative viability: 0.441
NCI-H1563; first compound 0.2 µM
  relative viability: 0.725
NCI-H1563; first compound 0.6325 µM
  relative viability: 0.821
NCI-H1563; first compound 2 µM
  relative viability: 0.688
NCI-H1563; first compound 6.325 µM
  relative viability: 0.72
NCI-H1563; first compound 20 µM
  relative viability: 0.525
NCI-H520; first compound 0.2 µM
  relative viability: 0.245
NCI-H520; first compound 0.6325 µM
  relative viability: 0.22
NCI-H520; first compound 2 µM
  relative viability: 0.249
NCI-H520; first compound 6.325 µM
  relative viability: 0.24
NCI-H520; first compound 20 µM
  relative viability: 0.25
NCI-H1993; first compound 0.2 µM
  relative viability: 0.515
NCI-H1993; first compound 0.6325 µM
  relative viability: 0.57
NCI-H1993; first compound 2 µM
  relative viability: 0.557
NCI-H1993; first compound 6.325 µM
  relative viability: 0.518
NCI-H1993; first compound 20 µM
  relative viability: 0.474
NCI-H1355; first compound 0.2 µM
  relative viability: 0.409
NCI-H1355; first compound 0.6325 µM
  relative viability: 0.366
NCI-H1355; first compound 2 µM
  relative viability: 0.399
NCI-H1355; first compound 6.325 µM
  relative viability: 0.372
NCI-H1355; first compound 20 µM
  relative viability: 0.253
NCI-H1666; first compound 0.2 µM
  relative viability: 0.957
NCI-H1666; first compound 0.6325 µM
  relative viability: 0.9
NCI-H1666; first compound 2 µM
  relative viability: 0.804
NCI-H1666; first compound 6.325 µM
  relative viability: 0.639
NCI-H1666; first compound 20 µM
  relative viability: 0.459
NCI-H1755; first compound 0.2 µM
  relative viability: 0.833
NCI-H1755; first compound 0.6325 µM
  relative viability: 0.69
NCI-H1755; first compound 2 µM
  relative viability: 0.779
NCI-H1755; first compound 6.325 µM
  relative viability: 0.703
NCI-H1755; first compound 20 µM
  relative viability: 0.223
NCI-H2170; first compound 0.2 µM
  relative viability: 0.714
NCI-H2170; first compound 0.6325 µM
  relative viability: 0.595
NCI-H2170; first compound 2 µM
  relative viability: 0.637
NCI-H2170; first compound 6.325 µM
  relative viability: 0.461
NCI-H2170; first compound 20 µM
  relative viability: 0.2
NCI-H1792; first compound 0.2 µM
  relative viability: 0.737
NCI-H1792; first compound 0.6325 µM
  relative viability: 0.807
NCI-H1792; first compound 2 µM
  relative viability: 0.791
NCI-H1792; first compound 6.325 µM
  relative viability: 0.578
NCI-H1792; first compound 20 µM
  relative viability: 0.596
LU99A; first compound 0.2 µM
  relative viability: 0.274
LU99A; first compound 0.6325 µM
  relative viability: 0.29
LU99A; first compound 2 µM
  relative viability: 0.273
LU99A; first compound 6.325 µM
  relative viability: 0.288
LU99A; first compound 20 µM
  relative viability: 0.233
COR-L23; first compound 0.2 µM
  relative viability: 0.843
COR-L23; first compound 0.6325 µM
  relative viability: 0.955
COR-L23; first compound 2 µM
  relative viability: 0.654
COR-L23; first compound 6.325 µM
  relative viability: 0.603
COR-L23; first compound 20 µM
  relative viability: 0.382
BEN; first compound 0.2 µM
  relative viability: 0.309
BEN; first compound 0.6325 µM
  relative viability: 0.315
BEN; first compound 2 µM
  relative viability: 0.28
BEN; first compound 6.325 µM
  relative viability: 0.318
BEN; first compound 20 µM
  relative viability: 0.298
NCI-H460; first compound 0.2 µM
  relative viability: 0.651
NCI-H460; first compound 0.6325 µM
  relative viability: 0.66
NCI-H460; first compound 2 µM
  relative viability: 0.42
NCI-H460; first compound 6.325 µM
  relative viability: 0.423
NCI-H460; first compound 20 µM
  relative viability: 0.0316
CAL-12T; first compound 0.2 µM
  relative viability: 0.607
CAL-12T; first compound 0.6325 µM
  relative viability: 0.579
CAL-12T; first compound 2 µM
  relative viability: 0.57
CAL-12T; first compound 6.325 µM
  relative viability: 0.445
CAL-12T; first compound 20 µM
  relative viability: 0.143
NCI-H1651; first compound 0.2 µM
  relative viability: 0.745
NCI-H1651; first compound 0.6325 µM
  relative viability: 0.806
NCI-H1651; first compound 2 µM
  relative viability: 0.63
NCI-H1651; first compound 6.325 µM
  relative viability: 0.611
NCI-H1651; first compound 20 µM
  relative viability: 0.612
HCC-44; first compound 0.2 µM
  relative viability: 0.699
HCC-44; first compound 0.6325 µM
  relative viability: 0.5
HCC-44; first compound 2 µM
  relative viability: 0.271
HCC-44; first compound 6.325 µM
  relative viability: 0.448
HCC-44; first compound 20 µM
  relative viability: 0.184
NCI-H1437; first compound 0.2 µM
  relative viability: 0.935
NCI-H1437; first compound 0.6325 µM
  relative viability: 0.854
NCI-H1437; first compound 2 µM
  relative viability: 0.952
NCI-H1437; first compound 6.325 µM
  relative viability: 0.599
NCI-H1437; first compound 20 µM
  relative viability: 0.186
NCI-H1650; first compound 0.2 µM
  relative viability: 0.653
NCI-H1650; first compound 0.6325 µM
  relative viability: 0.668
NCI-H1650; first compound 2 µM
  relative viability: 0.447
NCI-H1650; first compound 6.325 µM
  relative viability: 0.164
NCI-H1650; first compound 20 µM
  relative viability: 0.147
